Measured values as given in patent US12138240B2, “Treatment of cardiac dysfunction” (priority 2017, dated 2024).
Read-outs that look alike come from different tables or passages of the source.

What was measured:
[1] = system: human subjects with sustained atrial flutter; experiment: treatment of atrial flutter with A2-73 (Example 2); format: in vivo; details: Example 2: 60 mg orally daily
Experimental: The safety, tolerability, and short term efficacy of […] 2-73 in human subjects with sustained atrial flutter as follows. A subject with atrial flutter (72 hr duration) receives 60 mg of A2-73 orally daily. Dosing is initiated in hospital and continues in weekly follow-up visits. Efficacy is assessed as absence of atrial flutter recurrence on weekly 12-lead ECG and daily transtelephonic monitoring during the study.

[2] = system: human subjects with sustained atrial fibrillation (AF); experiment: treatment of atrial fibrillation with A2-73 (Examples 1 and 4); format: in vivo; details: for AF recurrence: 30 day follow-up; for serious adverse events: to end of 30 day follow-up
Experimental: The safety, tolerability, and short term efficacy of […] A subject with symptomatic AF (72 hr duration) receives 30 mg of A2-73 orally every day. Dosing is initiated in hospital and continues in weekly follow-up visits. Efficacy is assessed as absence of AF recurrence on weekly 12-lead ECG and daily transtelephonic monitoring during the study. The safety, tolerability, and short term efficacy of […] A subject with symptomatic AF (72 hr duration) is administered intravenously 30 mg of A2-73 every day. Dosing is initiated in hospital and continues in weekly follow-up visits. Efficacy is assessed as absence of AF recurrence on weekly 12-lead ECG and daily transtelephonic monitoring during the study.

[3] = system: male healthy subjects; experiment: linear exposure-QTcF model (NONMEM); parameters: species or system human; details: QTcFij=407+0.196*Parent−0.643*Metabolite−0.143*Time
Source text: Data analysis proceeded from data structure analysis in S-PLUS to linear/nonlinear mixed effects modeling in NONMEM to develop the exposure-QTc relationship for ANAVEX 2-73 and its active metabolite ANAVEX 19-144. The correction method used for QT interval was the Fridericia's correction. The bootstrap was used to determine the reliability/stability of the exposure-QTc models developed. This was necessary to determine if the modeling results obtained with data from the 17 subjects would be applicable to the population at large, given the sample size. […]
The approach used in characterizing exposure-QTc relationship was as follows: • 1) Concentration and QTc versus time plots were examined for any apparent trends or associations. • 2) Subject- and dose-specific QTc vs concentration plots were also examined for association as well as for the presence of any hysteresis indicative of temporal dissociations, i.e., indirect effects. • 3) All of the QTc measurements were plotted against the paired concentration measurements. […] Additionally, models incorporating cooperativity of drug action such as competitive antagonism between ANAVEX 2-73 and ANAVEX 19-144 concentrations and QTc effect were evaluated, as warranted, using nonlinear mixed effects modeling. […]

[4] = target: sigma-1 receptors (Homo sapiens, UniProt Q99720); details: stated as 'is believed to bind'; cited from earlier work
[5] = system: human subjects with sustained ventricular fibrillation; experiment: treatment of ventricular fibrillation with A19-144 (Example 3); format: in vivo; details: Example 3: 40 mg orally daily in two 20 mg doses
Experimental: The safety, tolerability, and short term efficacy of […] A subject with symptomatic ventricular fibrillation (72 hr duration) receives 40 mg of A19-144 orally daily in two 20 mg doses. Dosing is initiated in hospital and continues in weekly follow-up visits. Efficacy is assessed as absence of ventricular fibrillation recurrence on weekly 12-lead ECG and daily transtelephonic monitoring during the study.

[6] = phase 2a studies, highest observed Cmax and extrapolation to 200 mg dose; details: human, in vivo, footnote b, Alzheimer's disease patients, paired with ANAVEX 2-73 value, read-out: ANAVEX 19-144 Concentration, highest observed Cmax in phase 2a studies
Experimental: Estimates are employed to apply the Exposure-QTcF relationship using observed and unlikely to be observed concentrations of the parent drug and metabolite QTc intervals are predicted, given the parameter estimates obtained with the exposure-QTcF model developed. […] The predicted QTcF for that subject is 410.67 ms, given the corresponding concentration of ANAVEX 19-144 being 38.3 ng/mL (Table 3). Thus, the QT corrected interval upon treatment with ANAVEX 2-73 is predicted to be below 420 ms.
Observed and unlikely to be observed concentrations of the parent drug and metabolite are used to predict heart rate, given the parameter estimates obtained with the exposure-heart rate model developed. […] Thus, the heart rate upon treatment with ANAVEX 2-73 is predicted to be below 75 beats/min.

[7] = Example 1: 30 mg orally every day
[8] = Example 4: 30 mg intravenously every day

Sequence of sigma-1 receptors (Q99720 whole entry): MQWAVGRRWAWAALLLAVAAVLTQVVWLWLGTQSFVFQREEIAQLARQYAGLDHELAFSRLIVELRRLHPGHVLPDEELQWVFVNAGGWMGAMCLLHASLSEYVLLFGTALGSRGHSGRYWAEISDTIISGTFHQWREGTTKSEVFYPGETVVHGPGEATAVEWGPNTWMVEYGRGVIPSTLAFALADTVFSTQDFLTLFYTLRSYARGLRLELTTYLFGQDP

Row | SMILES | time to cessation of arrhythmia [1] [h] | recurrence ([1]; 30 day follow-up) | serious adverse events ([1]; to end of 30 day follow-up) | time to cessation of AF [2, 7] [h] | AF recurrence [2, 7] | serious adverse events [2, 7] | time to cessation of AF [2, 8] [h] | AF recurrence [2, 8] | serious adverse events [2, 8] | slope on Parent in final exposure-QTcF model [3] | affinity for sigma-1 receptors [4] | time to cessation of ventricular fibrillation [5] [h] | ventricular fibrillation recurrence ([5]; 30 day follow-up) | serious adverse events ([5]; to end of 30 day follow-up) | Cmax ([6]; 50 mg) [ng/mL] | Cmax [6] [ng/mL]
1 | CN(C)CC1CCOC1(c1ccccc1)c1ccccc1.Cl (stereo not shown) [ANAVEX 2-73, 1-(2,2-diphenyltetrahydrofuran-3-yl)-N,N-dimethylmethanamine hydrochloride] | ≤ 12 | does not recur | no serious adverse events occur | ≤ 12 | does not recur | no serious adverse events occur | ≤ 12 | does not recur | no serious adverse events occur | 0.196 | – | – | – | – | – | –
2 | CNCC1CCOC1(c1ccccc1)c1ccccc1.Cl (stereo not shown) [ANAVEX 19-144, 1-(2,2-diphenyltetrahydrofuran-3-yl)-N-methylmethanamine hydrochloride] | – | – | – | – | – | – | – | – | – | – | low micromolar range | ≤ 12 | does not recur | no serious adverse events occur | 11.1 | 23.1
